Experimental data: publication PMC6934184, “Selective DNA-PKcs inhibition extends the therapeutic index of localized radiotherapy and chemotherapy” (The Journal of Clinical Investigation, 2019)

Target: T1, TAOK3 (JIK) (Homo sapiens, UniProt Q9H2K8)
T1 construct: purchased Thermo Fisher Scientific (Life Technologies) SelectScreen
Experiment: SelectScreen LanthaScreen
Type: binding
Conditions: read-out: % displacement
In short: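 NU5455 was profiled across the SelectScreen Broad panel of kinase activity and binding assays. Z'LYTE reactions such as CSF1R ran at apparent Km ATP, while the Adapta CAMK1 assay used ATP listed as 10. Values are given as percent.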

T1 sequence (Q9H2K8 whole entry): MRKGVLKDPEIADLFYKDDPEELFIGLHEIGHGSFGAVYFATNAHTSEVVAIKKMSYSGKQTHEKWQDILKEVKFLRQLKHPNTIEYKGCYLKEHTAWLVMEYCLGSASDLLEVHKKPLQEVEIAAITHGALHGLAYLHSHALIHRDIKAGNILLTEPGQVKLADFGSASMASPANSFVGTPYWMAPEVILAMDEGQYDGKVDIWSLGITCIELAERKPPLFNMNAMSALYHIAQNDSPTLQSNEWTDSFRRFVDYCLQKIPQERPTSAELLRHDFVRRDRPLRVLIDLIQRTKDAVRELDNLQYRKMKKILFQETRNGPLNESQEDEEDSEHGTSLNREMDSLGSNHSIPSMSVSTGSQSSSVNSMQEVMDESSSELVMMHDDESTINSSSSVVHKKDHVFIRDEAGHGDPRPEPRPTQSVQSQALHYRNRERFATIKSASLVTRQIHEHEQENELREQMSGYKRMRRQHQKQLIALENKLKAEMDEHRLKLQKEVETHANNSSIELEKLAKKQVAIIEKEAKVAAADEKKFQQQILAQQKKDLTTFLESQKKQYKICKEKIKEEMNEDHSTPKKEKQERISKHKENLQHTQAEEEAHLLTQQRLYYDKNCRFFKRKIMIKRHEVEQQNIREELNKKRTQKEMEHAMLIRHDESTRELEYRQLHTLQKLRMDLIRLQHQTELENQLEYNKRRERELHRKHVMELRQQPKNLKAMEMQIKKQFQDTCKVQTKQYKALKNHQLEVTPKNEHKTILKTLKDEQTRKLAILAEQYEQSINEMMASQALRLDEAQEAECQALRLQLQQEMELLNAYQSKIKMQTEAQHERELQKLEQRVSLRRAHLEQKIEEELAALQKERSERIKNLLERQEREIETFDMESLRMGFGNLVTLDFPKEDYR

Compound: CN(C(=O)CN1CCOCC1)c1ccc2sc3c(-c4cccc5c(=O)cc(N6CC7CCC(C6)O7)oc45)cccc3c2c1 [NU5455]
- inhibition at 1 µM: 4.2%
